Measurements taken from ChEMBL document CHEMBL1151290, “Chemical constituents of Brazilian propolis and their cytotoxic activities” (1998).
Values after ≈ are worked out from the molar mass of the structure shown.

How the values were obtained:
[1] = Cytotoxicity against mouse 26-L5 cells after 24 hrs by MTT assay; format: functional; conditions: read-out: ED50 (the source's name)
[2] = system: HT-1080; assay: Cytotoxicity against human HT1080 cells after 24 hrs by MTT assay; format: functional; conditions: HT-1080, 24 h, read-out: ED50 (the source's name)

Compound	EC50 [1]	EC50 [2]
COc1cc([C@H]2Oc3c(OC)cc(/C=C/COC(C)=O)cc3[C@@H]2COC(C)=O)ccc1O [DIMERICCONIFERYLACETATE]	39.9 µg/mL (≈ 90.1 µM)	38.9 µg/mL (≈ 88 µM)
C=C1CC[C@@H]2[C@](C)(CCC[C@]2(C)C(=O)O)[C@H]1CC/C(C)=C/COC(C)=O	73.3 µg/mL (≈ 202 µM)	70.1 µg/mL (≈ 193 µM)
C=C[C@](C)(O)CC[C@H]1C(=C)CC[C@@H]2[C@]1(C)CCC[C@]2(C)C(=O)O [CUPRESSICACID]	> 100 µg/mL	94.9 µg/mL (≈ 296 µM)
COc1ccc([C@H]2Oc3cc(O)cc(O)c3C(=O)[C@@H]2O)cc1	71 µg/mL (≈ 235 µM)	27 µg/mL (≈ 89.2 µM)
CC(C)=CCc1cc(/C=C/C(=O)O)cc(CC=C(C)C)c1O [ARTEPILLIN]	59.3 µg/mL (≈ 197 µM)	45.5 µg/mL (≈ 151 µM)
COc1cc(/C=C/C=O)ccc1O [CONIFERYL ALDEHYDE]	10.4 µg/mL (≈ 58.6 µM)	4.05 µg/mL (≈ 22.7 µM)
C=C1CC[C@@H]2[C@](C)(CCC[C@]2(C)C(=O)O)[C@H]1CC/C(C)=C/C(=O)O [AGATHIC ACID]	95.9 µg/mL (≈ 287 µM)	75.4 µg/mL (≈ 226 µM)
C=C1CC[C@@H]2[C@](C)(CCC[C@]2(C)C(=O)O)[C@H]1CC/C(C)=C/CO [ISOCUPRESSIC ACID]	63.5 µg/mL (≈ 198 µM)	72.9 µg/mL (≈ 228 µM)
CC(C)=CCc1cc(/C=C/C(=O)O)ccc1OC(=O)CCc1ccccc1 [BACCHARIN]	77.9 µg/mL (≈ 214 µM)	25.9 µg/mL (≈ 71.2 µM)
C=C(C)[C@H]1Cc2cc(C(C)=O)ccc2O1 [TREMETONE]	58.1 µg/mL (≈ 287 µM)	57.4 µg/mL (≈ 284 µM)
C=C1CC[C@@H]2[C@](C)(CCC[C@]2(C)C(=O)O)[C@H]1CC/C(C)=C/C(=O)OC	> 100 µg/mL	72.8 µg/mL (≈ 209 µM)
C=C(CO)[C@H]1Cc2cc(C(C)=O)c(O)cc2O1	57.1 µg/mL (≈ 244 µM)	45.5 µg/mL (≈ 194 µM)
COc1ccc(-c2oc3cc(O)cc(O)c3c(=O)c2O)cc1 [KAEMPFERIDE]	5.95 µg/mL (≈ 19.8 µM)	2.91 µg/mL (≈ 9.69 µM)
COc1cccc2c1C(=O)c1c(O)c3c(c(O)c1C2=O)C[C@@](O)(C(=O)CO)C[C@@H]3O[C@H]1C[C@H](N)[C@H](O)[C@H](C)O1.Cl [DOXORUBICIN HYDROCHLORIDE]	0.015 µg/mL	0.034 µg/mL
COc1ccc(-c2oc3cc(O)c(OC)c(O)c3c(=O)c2O)cc1 [BETULETOL]	4.95 µg/mL (≈ 15 µM)	5.83 µg/mL (≈ 17.7 µM)
CC(C)=CCc1cc(/C=C/C(=O)O)cc2c1OC(C)(C)C(O)C2 (stereo unspecified)	77.1 µg/mL (≈ 244 µM)	71.5 µg/mL (≈ 226 µM)
COc1ccc(-c2oc3cc(O)cc(O)c3c(=O)c2OC)cc1 [ERMANIN]	7.64 µg/mL (≈ 24.3 µM)	2.3 µg/mL (≈ 7.32 µM)
CC(C)=CCc1cc(/C=C/C(=O)O)cc2c1OC(C)(C)C=C2 [CULIFOLIN]	50.2 µg/mL (≈ 168 µM)	46.9 µg/mL (≈ 157 µM)
